Data on 37 molecules can be found in PubChem BioAssay AID1508612.

The nature of the series: passive permeability, PAMPA, ADME assay (AID 1508612). Particulars: pH 7.4, 30.0 min, 50.0 µM.

Structures are written as SMILES. A value given as a limit tells only on which side of the number the result lay.

Usually Papp stands for the rate of passage across a membrane or cell layer, normalised by area and donor concentration. `CN1Cc2c(cc(N3CCOCC3)nc2-c2ccccc2OC(F)(F)F)C1=O` came in with an apparent permeability (Papp) of over 1000 ×10⁻⁶ cm/s.

Molecule `COc1cccc(CNc2ccc(C(=O)Nc3nccs3)cc2)c1O` registered a Papp of over 1000 ×10⁻⁶ cm/s.

Turning to `Cc1ccc(S(=O)(=O)Nc2ncccc2C(=O)Nc2nc(-c3ccccc3)cs2)cc1`, the Papp is 814 ×10⁻⁶ cm/s.

Regarding `Cn1nnnc1Sc1ncnc2scc(-c3cc4ccccc4o3)c12`, the Papp came to 936 ×10⁻⁶ cm/s.

In turn, `O=C(c1nc(-c2cccnc2)c2ccccn12)N1CCOCC1` displayed a Papp of 206 ×10⁻⁶ cm/s. Against the preceding molecule, the Papp is about 4.5-fold lower.

With `Cc1cc(NS(=O)(=O)c2ccc(NCCc3ccc(Cl)c(Cl)c3)cc2)no1`, the Papp turned out to be 406 ×10⁻⁶ cm/s.

`COc1ccc2[nH]c(=O)c(-c3noc(-c4cccs4)n3)cc2c1`: the Papp was found to be 351 ×10⁻⁶ cm/s.

The molecule `O=C1Nc2ccccc2/C1=C\c1ccc([N+](=O)[O-])cc1` had a Papp of 455 ×10⁻⁶ cm/s.

In turn, `COC(=O)c1ccc2c(C(=Nc3ccc(N(C)C(=O)CN4CCN(C)CC4)cc3)c3ccccc3)c(O)[nH]c2c1` gave a Papp of 12.5 ×10⁻⁶ cm/s.

Molecule `CC[C@@H]1C(=O)N(C)c2cnc(Nc3ccc(C(=O)NC4CCN(C)CC4)cc3OC)nc2N1C1CCCC1` gave a Papp of 561 ×10⁻⁶ cm/s.

`COc1ccc(NC(=O)c2[nH]c(C)cc2C)cc1S(=O)(=O)Nc1ccc(Br)cc1` gave a Papp of over 1000 ×10⁻⁶ cm/s.

`CC1=C(C(=O)Nc2ccccc2)C(c2ccc[nH]2)n2ncnc2N1` (configuration not stated) returned an apparent permeability (Papp) of 80 ×10⁻⁶ cm/s.

Molecule `COc1ccc(/C=C2/C(=O)Nc3ccccc32)cc1O` gave a Papp of over 1000 ×10⁻⁶ cm/s.

`N=c1c2c(ncn1-c1ccccc1)Oc1ccc3ccccc3c1C2c1ccc2c(c1)CCO2` (configuration not stated) showed a Papp of 282 ×10⁻⁶ cm/s.

Take `Cc1cccc(N2CCN(c3nc4ccccc4c4nnc(C)n34)CC2)c1C`: the Papp stood at 887 ×10⁻⁶ cm/s.

Regarding `O=C(Nc1cccc(C(F)(F)F)c1)c1ccccc1NC(=O)C1CCCCC1`, the Papp is under 1 ×10⁻⁶ cm/s.

On to `O=C1CCCC2=C1C(c1[nH]ncc1Cl)N=C(Nc1nc3ccccc3o1)N2` (configuration not stated), for which the Papp stood at 718 ×10⁻⁶ cm/s.

As to `COc1ccc(-c2nc3sc(CCNC(=O)C(C)(C)C)c(C)n3n2)cc1`, the Papp is 214 ×10⁻⁶ cm/s.

For `Fc1cnc(-c2ccccc2C(F)F)nc1NCc1ccc(-c2cccnc2)cc1`, the Papp was over 1000 ×10⁻⁶ cm/s.

The molecule `COc1cc(OC)cc(-c2csc(N3CCC(C(N)=O)CC3)n2)c1` had a Papp of over 1000 ×10⁻⁶ cm/s.

As for `COc1ccc(N(C)C(=O)c2cc3c(s2)-c2ccccc2OC3)cc1`, the Papp worked out at 822 ×10⁻⁶ cm/s.

`OCc1ccc(-c2nn(Cc3ccccc3)c3ccccc23)o1` displayed a Papp of 842 ×10⁻⁶ cm/s.

Regarding `CCCN1CNc2c(c(=O)[nH]c(=S)n2Cc2ccc(OC)c(OC)c2)C1`, the Papp amounted to 55 ×10⁻⁶ cm/s.

In the case of `c1cc(-c2cc(-c3ccncc3)c3cncn3c2)c2[nH]ncc2c1`, the apparent permeability (Papp) came out at 25.1 ×10⁻⁶ cm/s. Against the preceding molecule, the Papp is about 2.2-fold lower.

Molecule `O=S(=O)(Nc1cccc2ccncc12)c1ccc(NCc2cccc(Cl)c2O)cc1` had a Papp of over 1000 ×10⁻⁶ cm/s.

For `COc1ccccc1-c1nc(NCc2ccc(-c3cccnc3)cc2)c2ccccc2n1`, the Papp was determined as 980 ×10⁻⁶ cm/s.

On to `COc1cc([C@@H]2c3cc4c(cc3[C@H](O)[C@H]3COC(=O)[C@H]23)OCO4)cc(OC)c1OC`, for which the Papp was 224 ×10⁻⁶ cm/s.

`Cc1nnn(C)c1-c1cnc2c3ccc(C(C)(C)O)cc3n([C@H](c3ccccc3)C3CCOCC3)c2c1` gave a Papp of 746 ×10⁻⁶ cm/s. This Papp is about 3.3-fold higher than that of the molecule before.

`Cc1ccc(NC(=O)c2c(N3CCCC3=O)c3cc(C)ccc3n2C)c(C)c1` came in with a Papp of over 1000 ×10⁻⁶ cm/s.

`O=C(NC1CCCN(c2cc(-c3ccc(F)cc3)[nH]n2)C1)c1ccc2ncccc2c1` (configuration not stated) registered a Papp of 61.8 ×10⁻⁶ cm/s.

`Cc1ccc(OCCn2c(CCNC(=O)c3ccc(Cl)cc3)nc3ccccc32)cc1`: the Papp was found to be 754 ×10⁻⁶ cm/s. Compared with the last molecule, the Papp is about 12-fold higher.

In turn, `Cc1cc2ccccc2n1CC(=O)NC1CCCCC1` displayed an apparent permeability coefficient (Papp) of 634 ×10⁻⁶ cm/s.

`COc1ccc2[nH]c(S(=O)Cc3ncc(C)c(OC)c3C)nc2n1` (configuration not stated) gave a Papp of 183 ×10⁻⁶ cm/s. This Papp is about 3.5-fold lower than that of the molecule before.

For the molecule `CC(=O)c1c(C)[nH]c(C(=O)Nc2cccc(S(=O)(=O)N3CCOCC3)c2)c1C`, the Papp came out at 475 ×10⁻⁶ cm/s. This Papp lies about 2.6-fold higher than the previous one.

In the case of `COc1ccc(OC)c(Nc2c3c(nc4ccccc24)CCC3)c1`, the Papp was over 1000 ×10⁻⁶ cm/s.

As to `O=C(Nc1nc(-c2ccccc2)cs1)c1ccncc1NS(=O)(=O)c1cccc(Cl)c1`, the Papp was determined as 754 ×10⁻⁶ cm/s.

`Cc1ccc(CNc2ccccc2C(=O)Nc2nc(-c3ccccc3)cs2)cc1`: the Papp turned out to be 26.4 ×10⁻⁶ cm/s.
